Read-outs that look alike come from different tables or passages of the source.
Key:
MDA-MB-231 = test: SRB cell proliferation assay, MDA-MB-231; assay type: cell-based; settings: Homo sapiens; MDA-MB-231 (breast); compound 1 tested in racemic mixture
Procedure: (§1) Cells were exposed to the test compound racemate at various concentrations appropriate to determine an IC50 for 72 hours. Cell proliferation was measured using the SRB assay according to Shekan et al (J Natl Cancer Inst (1990) 82, 1107-112) in order to estimate the IC50 values shown in Table 3. Briefly, cells were plated in 96 well dishes 24 hours prior to compound addition at the densities specified in Table 5.1. The assay was terminated with the addition of cold TCA to a final concentration of 10% after growth medium has been removed and the plates were incubated over night at 4°C. The plates were then washed 5 times with water and 100µl of a Sulforhodamine B solution ([…]) was added to each well. The plates were then incubated for 10 minutes at room temperature before removal of unbound dye by washing with 1% acetic acid. The bound dye was solubilised with 10 mM Trizma base and the absorbance read at OD520.
(§2) Inhibitory activity of the compound (IC) was calculated as % inhibition of cell proliferation compared to cells treated with the solvent (DMSO).
(§3) Table 8.1: 18-Cell Line Panel

SK-MEL-5 = test: SRB cell proliferation assay, SK-MEL-5; assay type: cell-based; settings: Homo sapiens; SK-MEL-5 (melanoma); compound 1 tested in racemic mixture
Procedure: as §1, §2, §3

DU 145 = test: SRB cell proliferation assay, DU 145; assay type: cell-based; settings: Homo sapiens; DU 145 (prostate); compound 1 tested in racemic mixture
Procedure: as §1, §2, §3

COLO 205 = test: SRB cell proliferation assay, COLO 205; assay type: cell-based; settings: Homo sapiens; COLO 205 (colon); compound 1 tested in racemic mixture
Procedure: as §1, §2, §3

A-431 = test: SRB cell proliferation assay, A-431; assay type: cell-based; settings: Homo sapiens; A-431 (skin); compound 1 tested in racemic mixture
Procedure: as §1, §2, §3

SW620 = test: SRB cell proliferation assay, SW620; assay type: cell-based; settings: Homo sapiens, SW-620; SW620 (colon); compound 1 tested in racemic mixture
Procedure: as §1, §2, §3

HT-29 = test: SRB cell proliferation assay, HT-29; assay type: cell-based; settings: Homo sapiens; HT-29 (colon); compound 1 tested in racemic mixture; read-out: IC50
Procedure: as §1, §2, §3

HCT 116 = test: SRB cell proliferation assay, HCT 116; assay type: cell-based; settings: Homo sapiens; HCT 116 (colon); compound 1 tested in racemic mixture; read-out: IC50
Procedure: as §1, §2, §3

SK-MEL-28 = test: SRB cell proliferation assay, SK-MEL-28; assay type: cell-based; settings: Homo sapiens; SK-MEL-28 (melanoma); compound 1 tested in racemic mixture
Procedure: as §1, §2, §3

PC-3 = test: SRB cell proliferation assay, PC-3; assay type: cell-based; settings: Homo sapiens; PC-3 (prostate); compound 1 tested in racemic mixture
Procedure: as §1, §2, §3

IMR-90 = test: SRB cell proliferation assay, IMR-90; assay type: cell-based; settings: Homo sapiens; IMR-90 (lung); compound 1 tested in racemic mixture; read-out: IC50
Procedure: as §1, §2, §3

NCI-H460 = test: SRB cell proliferation assay, NCI-H460; assay type: cell-based; settings: Homo sapiens; NCI-H460 (NSCLC); compound 1 tested in racemic mixture
Procedure: as §1, §2, §3

OVCAR-3 = test: SRB cell proliferation assay, OVCAR-3; assay type: cell-based; settings: Homo sapiens; OVCAR-3 (ovary); compound 1 tested in racemic mixture
Procedure: as §1, §2, §3

A549 = test: SRB cell proliferation assay, A549; assay type: cell-based; settings: Homo sapiens; A549 (lung); compound 1 tested in racemic mixture
Procedure: as §1, §2, §3

MDA-MB-468 = test: SRB cell proliferation assay, MDA-MB-468; assay type: cell-based; settings: MDA-MB-468 (breast), compound 1 tested in racemic mixture
Procedure: as §1, §2, §3

A-375 = test: SRB cell proliferation assay, A-375; assay type: cell-based; settings: Homo sapiens; A-375 (melanoma); compound 1 tested in racemic mixture
Procedure: as §1, §2, §3

HeLa = test: SRB cell proliferation assay, HeLa; assay type: cell-based; settings: Homo sapiens; HeLa (cervix); compound 1 tested in racemic mixture
Procedure: as §1, §2, §3

ACHN = test: SRB cell proliferation assay, ACHN; assay type: cell-based; settings: Homo sapiens; ACHN (kidney); compound 1 tested in racemic mixture
Procedure: as §1, §2, §3

NCI-H460 tumor cells = test: Mouse xenograft model using human NCI-H460 cells; assay type: in vivo; settings: for mean body weight / mean body weight change: end of day four after begin of treatment; for mice died: mouse, in vivo
Procedure: […]. Human HT-29 cells (ATCC) colon carcinoma cell line are cultured in McCoy's medium (ATCC) supplied with 10% FCS and 1% Pen/Strep. The 2nd passage of cells with approximately 80% confluence is used in the study. Briefly, on Day 0, mice are inoculated with 0.1 ml (total 5x10^6 cells) of HT-29 cell suspension (50x10^6 cells/ml in McCoy's medium without supplements mixed 1:1 with Matrigel) by a subcutaneous injection into the lower right flank under light anesthesia. When the average tumor weights reaches above 100mg, animals with an appropriate tumor size are selected and are randomly divided into treatment groups (10 animals each).
Tumor growth and body weight are monitored and recorded twice a week. Tumors are measured by determining the length and width of the tumor with a digital caliper. Tumor weight is estimated using the following formula: Tumor Weight (mg) = (w^2 x 1) / 2 where w = width and I = length in mm of the tumor.
Toxic deaths are defined as deaths caused by compound treatment and not by advanced disease state. […].
In a model similar to the one described in a), mice were inoculated with NCI-H460 tumor cells, and treated (9 mice for each treatment group) with either vehicle only (NMP:PEG300), compound 1 (70 mg/kg once per week), compound 1 (35 mg/kg twice per week), BI 6727 (70 mg/kg once per week) and gemcitabine (25 mg/kg, once per week) (vivoPharm Europe Limited, Munich, Germany). At the end of day four after begin of treatment, the mean body weight for the compound 1 treatment groups had dropped from 20.5 g to 19.2 g (~5%; standard deviation 2.6 g), and from 20.1 g to 19.3 g (-4%; standard deviation 0.9 g), respectively, and one mouse in the high-dose treatment group had died. In contrast, in the BI 6727 treatment group, the mean body weight had dropped from 20.2 g to 16.2 g (-20%; standard deviation 1.5 g), five mice had died and the remaining mice had to be killed for ethical reasons.

[1] = test system: panel of 57 tumor cell lines; test: Panel of 57 tumor cell lines (OncoLead), growth inhibition; assay type: cell-based
Procedure: In a similar experiment, the inhibitory activity of compound 1 was tested against a panel of 57 tumor cell lines (OncoLead GmbH&Co.KG, Martinsried, Germany) under conditions of non-disclosure, non-dissemination and non-use.
In 18 cell lines, the GI50 value was between 1 µM and 0.1 µM, and in 31 cell lines, the GI50 value was below 0.1 µM.

Plk1 = Plk1 (Homo sapiens, UniProt P53350); test: Standard selectivity panel (ProQinase), Plk1; assay type: biochemical; parameters: purchased ProQinase GmbH, Freiburg, Germany; settings: duplicates, read-out: inhibited Plk1
Procedure: (§4) The compound of the present invention was tested in a standard selectivity panel including Plkl and 255 other kinases (ProQinase GmbH, Freiburg, Germany), under conditions of non-disclosure, non-dissemination and non-use.
(§5) In brief, compound 1 (see Table 1) was tested at 1 µM in duplicates against Plk1 as well as against 255 other protein kinases, including Abl, Aktl, Aur A, Kit, Raf-1, Cdkl/CycB1, Chk1, FGF-R3, Flt3, Fyn, IGF1-R, INS-R, Lyn, p38a, PAK4, PKCalpha, Ret, ROCK2, Src, TIE2, and VEGF-R2. The test compound 1 inhibited Plk1 by more than about 90%, only three other kinases were inhibited by between about 50% and about 90%, about 13 kinases by between about 10% and about 50%, and all other kinases were inhibited by less than about 10%.

[2] = test system: 255 other protein kinases; test: Standard selectivity panel (ProQinase), 255 other kinases; assay type: biochemical; settings: 1 µM, duplicates; all other kinases
Procedure: as §4, §5

Sequence of Plk1 (P53350 whole entry, species assumed): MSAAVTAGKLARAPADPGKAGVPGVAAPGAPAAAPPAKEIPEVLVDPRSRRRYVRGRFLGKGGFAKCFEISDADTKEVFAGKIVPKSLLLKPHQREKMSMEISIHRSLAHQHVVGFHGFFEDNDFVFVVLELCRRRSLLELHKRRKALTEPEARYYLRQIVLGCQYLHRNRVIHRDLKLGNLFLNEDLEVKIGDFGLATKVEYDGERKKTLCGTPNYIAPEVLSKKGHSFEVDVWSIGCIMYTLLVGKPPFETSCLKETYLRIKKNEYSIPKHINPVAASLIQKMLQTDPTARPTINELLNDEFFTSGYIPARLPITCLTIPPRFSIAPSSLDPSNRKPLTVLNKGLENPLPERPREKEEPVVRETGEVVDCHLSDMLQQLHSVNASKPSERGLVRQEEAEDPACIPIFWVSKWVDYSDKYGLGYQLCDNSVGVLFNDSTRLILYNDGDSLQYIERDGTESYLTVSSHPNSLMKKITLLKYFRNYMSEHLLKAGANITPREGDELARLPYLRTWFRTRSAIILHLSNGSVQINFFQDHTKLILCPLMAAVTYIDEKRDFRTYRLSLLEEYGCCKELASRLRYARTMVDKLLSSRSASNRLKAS

Compound | IC50 (MDA-MB-231) [µM] | IC50 (SK-MEL-5) [µM] | IC50 (DU 145) [µM] | IC50 (COLO 205) [µM] | IC50 (A-431) [µM] | IC50 (SW620) [µM] | IC50 (HT-29) [µM] | IC50 (HCT 116) [µM] | IC50 (SK-MEL-28) [µM] | IC50 (PC-3) [µM] | IC50 (IMR-90) [µM] | IC50 (NCI-H460) [µM] | IC50 (OVCAR-3) [µM] | IC50 (A549) [µM] | IC50 (A-375) [µM] | IC50 (HeLa) [µM] | IC50 (ACHN) [µM] | mean body weight (NCI-H460 tumor cells; 70 mg/kg once per week) [g] | mean body weight change (NCI-H460 tumor cells; 70 mg/kg once per week) | mice died (NCI-H460 tumor cells) | also measured
CC[C@@H]1C(=O)N(C)c2cnc(Nc3ccc(C(=O)NC4CCN(C)CC4)cc3OC)nc2N1C1CCCC1 [BI 2536, reference compound] | < 1 | < 1 | < 1 | < 1 | < 1 | < 1 | < 1 | < 1 | < 1 | < 1 | > 1 | < 1 | < 1 | < 1 | < 1 | < 1 | < 1 |  |  |  | IC50 (MDA-MB-468): plateau at ∼50%
CC[C@@H]1C(=O)N(C)c2cnc(Nc3ccc(C(=O)N[C@H]4CC[C@H](N5CCN(CC6CC6)CC5)CC4)cc3OC)nc2N1C(C)C [BI 6727, reference compound] |  |  |  |  |  |  |  |  |  |  |  |  |  |  |  |  |  | 16.2 | -20% | five | 
CC[C@@H]1C(=O)N(C)c2cnc(Nc3ccc(C(=O)N[C@H]4CC[C@H](N5CCN(CC6CC6)CC5)CC4)cc3OC)nc2N1N(C)C [Compound 1, (7R)-N-[trans-4-(4-Cyclopropylmethyl-piperazin-1-yl)-cyclohexyl]-4-(8-dimethylamino-7-ethyl-5-methyl-6-oxo-5,6,7,8-tetrahydro-pteridin-2-ylamino)-3-methoxy-benzamide] | < 1 | < 1 | < 1 | < 1 | < 1 | < 1 | < 1 | < 1 | > 1 | < 1 | > 1 | < 1 | < 1 | < 1 | < 1 | < 1 | < 1 | 19.2 | ~ 5% | one | GI50 ([1]; in 18 cell lines of 57): 0.1 to 1 µM; GI50 ([1]; in 31 cell lines of 57): < 0.1 µM; GI50 ([1]; in about 49 cell lines of 57): < 1 µM; inhibition at 1 µM (Plk1): > 90%; kinases inhibited [2]: less than 10%; mean body weight (NCI-H460 tumor cells; 35 mg/kg twice per week): 19.3 g; mean body weight change (NCI-H460 tumor cells; 35 mg/kg twice per week): -4%; tumor growth (NCI-H460 tumor cells; 70 mg/kg once per week and 35 mg/kg twice per week, compared with vehicle only or gemcitabine groups): a reduction of tumor growth could be observed; IC50 (MDA-MB-468; Homo sapiens, read-out: IC50): > 1 µM

From patent publication EP2325185A1, “Plk inhibitor” (GPC Biotech AG, priority 2009, dated 2011)
